Results taken from PubChem BioAssay (NCI).
Several values for one entry are separate records, joined by “and”; a condition that tells them apart may be missing. Equal values may be shown once.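 A five-concentration, 48-hour dose response in 96-well plates underlies each endpoint, interpolated linearly between surrounding concentrations. GI50: concentration for 50% inhibition of growth. TGI marks complete inhibition of growth.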

How the values were obtained:
Assay in all cases: inhibition of tumour cell growth, NCI panel, 48 h
MOLT-4 leukemia = test system: MOLT-4 leukemia
HL-60(TB) leukemia = test system: HL-60(TB) leukemia
SK-MEL-2 melanoma = test system: SK-MEL-2 melanoma
K-562 leukemia = test system: K-562 leukemia
CCRF-CEM leukemia = test system: CCRF-CEM leukemia
HCT-15 colon = test system: HCT-15 colon

Structure (SMILES) | TGI (MOLT-4 leukemia) [µM] | TGI (HL-60(TB) leukemia) [µM] | TGI (SK-MEL-2 melanoma) [µM] | TGI (K-562 leukemia) [µM] | TGI (CCRF-CEM leukemia) [µM] | TGI (HCT-15 colon) [µM] | GI50 (MOLT-4 leukemia) | GI50 (HL-60(TB) leukemia) [µM] | GI50 (SK-MEL-2 melanoma) [µM] | GI50 (K-562 leukemia) [µM] | GI50 (CCRF-CEM leukemia) [µM] | GI50 (HCT-15 colon) [µM]
O=C(O)c1cc2ccccc2c(O)c1O | > 66.8 | > 74.3 | 14.6 | > 58.8 | > 58.6 | 42.6 | – | – | – | – | – | –
Cc1c(N=Nc2ccc([N+](=O)[O-])cc2)nc2scc(-c3ccccc3)n12 | > 100 | 49.2 | > 100 | > 100 | > 73.4 | > 92.2 | – | – | – | – | – | –
Nc1ccccc1C#C/C=C\C#Cc1ccccc1C(F)(F)F | > 100 | > 27.7 | > 100 | 3.74 | > 100 | 12.5 | > 61.3 µM | 1.04 | 21.8 | 1.07 | 17.7 | 1.13
CCCC[C@H]1C(=O)O[C@H](C)[C@H](NC(=O)c2cccc(NC=O)c2O)C(=O)O[C@@H](C)[C@@H]1OC(=O)CC(C)C | 53 | 34.2 | 22.2 | 57.7 | 6.29 | 22 | – | – | – | – | – | –
N#Cc1c(C(=O)c2ccccc2)cnn1-c1ccccc1 | > 25 | > 25 | > 25 | > 25 | > 25 | > 25 | > 25 µM | > 25 | > 25 | > 25 | > 25 | > 25
C[C@@H]1C=C(CCCCCCCCCCC[C@H](O)[C@@H]2CCC(=O)O2)C(=O)O1 | 42.6 | – | > 100 | 56.7 | 47.4 | > 100 | 21.6 µM | – | 40.8 | 20.4 | 17.6 | 25.5
C(=N\Nc1ccccn1)/c1ccccn1 | > 100 | 2.53 | > 100 | > 100 | > 100 | > 100 | 0.392 µM | 0.272 | > 100 | 0.412 | 0.446 | 0.368
O=c1cccc(C#CC#C[C@H]2O[C@@H]2CO)o1 | > 100 | > 100 | > 21 | > 100 | 0.431 | 1.29 | 0.154 µM | 1.47 | 5.53 | 0.182 | 0.17 | 0.353
OC1(C(O)(c2ccc(-c3ccccc3)cc2)c2ccc(-c3ccccc3)cc2)CCCCC1 | > 100 | > 100 | > 100 | > 100 | – | > 100 | – | – | – | – | – | –
Cc1cn(C2CC(F)C(CO)O2)c(=O)[nH]c1=O (stereo unspecified) | > 100 | > 100 | > 100 | > 100 | > 100 | > 100 | > 100 µM | > 100 | > 100 | > 100 | > 100 | > 100
O=C(O)C(=Cc1ccnc2ccccc12)C(=O)O | > 100 | > 100 | > 100 | > 100 | > 100 | > 100 | – | – | – | – | – | –
COc1ccccc1-[n+]1cc(-c2ccc(-c3ccccc3)cc2)n2c1CCCCC2 | 3.97 | 1.01 | 2.22 | 13.1 | 23.9 | 20.2 | 0.292 µM | 0.0429 | 0.237 | 0.173 | 0.224 | 4.35
O=C1CCC(Cc2ccc(Cl)cc2Cl)C(=O)N1 (stereo unspecified) | > 100 | > 100 | > 100 | > 100 | > 100 | > 100 | – | – | – | – | – | –
NC(=O)c1cnc(N[C@@H]2CCCC[C@@H]2N)nc1Nc1cccc(-n2nccn2)c1 | 12.7 | 3.82 | 15.2 | 14.7 | 19.8 | 14.9 | 2.94 µM | 1.5 | 3.29 | 3.94 | 5 | 3.81
C/C(=N/S(=O)(=O)c1ccc(Cl)c(Cl)c1)OCC(C)(C)C | > 100 | > 100 | > 100 | > 100 | > 100 | > 100 | – | – | – | – | – | –
O=Cc1c(-c2cc(O)ccc2O)nc2sccn12 | 11.5 | – | 55.9 | – | 7.21 | 39.3 | 2.52 µM | – | 20.1 | – | 0.95 | 12.5
CC1=C(/C=C/C(C)=C\C=C\C(C)=C\C(=O)Nc2ccc3c(c2)OCO3)C(C)(C)CCC1 | > 100 | 18 | > 100 | > 100 | > 100 | > 100 | 16.1 µM | 1.65 | 61.6 | 7.56 | 22.6 | 36.4
CC12CCC3C(CC=C4CC(O)CCC43C)C1C/C(=C\N1CCCC1)C2=O (stereo unspecified) | > 100 | > 100 | > 100 | > 100 | > 100 | > 100 | > 100 µM | 75.3 | > 100 | 55.8 | 79.3 | 87.1
O=C(/C=C/c1cccnc1)NCCCCC1CCN(C(=O)c2ccccc2)CC1 | > 100 | > 100 | > 100 | > 100 | > 100 | > 100 | 31.1 µM and 21.7 µM | > 65.6 | > 100 | < 0.01 | < 0.01 | < 0.01
CC(=O)OC[C@H]1O[C@@H](n2ccc(=O)[nH]c2=O)[C@H](OC(C)=O)[C@@H]1OC(C)=O | > 100 | > 100 | > 100 | > 100 | > 100 | > 100 | > 100 µM | > 100 | > 100 | > 100 | > 100 | > 100
CN(C)CCCn1c2c(c3cnccc3c1=O)C(=O)c1ccccc1-2 | 2.1 | 4.65 | 3.6 | 12.5 | 2.87 | 10.2 | 0.232 µM | 0.514 | 0.829 | 0.474 | 0.318 | 0.318
CCN(Cc1cccc(OC)c1)c1ccc(CO)c(Cl)c1 | > 71.9 | 51.7 | 21.3 | > 86.5 | > 82.6 | 66.6 | 21.2 µM | 14.6 | 2.81 | 1.92 | 24.8 | 14.8

Structure (SMILES) | TGI (MOLT-4 leukemia) [µM] | TGI (HL-60(TB) leukemia) [µM] | TGI (SK-MEL-2 melanoma) [µM] | TGI (K-562 leukemia) [µM] | TGI (CCRF-CEM leukemia) [µM] | TGI (HCT-15 colon) [µM] | GI50 (MOLT-4 leukemia) | GI50 (HL-60(TB) leukemia) [µM] | GI50 (SK-MEL-2 melanoma) [µM] | GI50 (K-562 leukemia) [µM] | GI50 (CCRF-CEM leukemia) [µM] | GI50 (HCT-15 colon) [µM]
CSc1nc2c(c(=O)[nH]1)N=C1c3ccccc3C(=O)C1C(c1ccc(F)cc1)N2 (stereo unspecified) | > 100 | > 100 | > 100 | > 100 | > 100 | > 100 | 19.5 µM | 6.54 | 49.3 | 4.05 | 8.16 | 4.57
CC(C)(C)N1CCC1C(N)=O (stereo unspecified) | > 100 | > 100 | > 100 | > 100 | > 100 | > 100 | > 100 µM | > 100 | > 100 | > 100 | > 100 | > 100
O=c1c2ccccc2c2ccccc2c(=O)n1-c1cc2c3ccccc3ccc2c2ccccc12 | – | – | > 100 | – | – | > 100 | – | – | – | – | – | –
C1CC[N-]CC1.C1CC[N-]CC1.C1CC[N-]CC1.C1CC[N-]CC1.[Cl][Rh][Cl] | > 100 | – | 41.8 | – | 72.4 | > 100 | 13.7 µM | – | 12.7 | – | 3.46 | 41.2
N[C@@H](Cc1c[nH]c2ccccc12)C(=O)NC1CCN(C(=O)c2c[nH]c3ccccc23)CC1 | > 100 | > 100 | > 100 | > 100 | > 100 | > 100 | 63.5 µM | > 100 | > 100 | > 100 | > 100 | > 100
COc1ccc(-n2c(SCc3cc(OC)c(OC)c(OC)c3)nc3ccc(C)cc3c2=O)c(OC)c1 | > 100 | 4.77 | 85.1 | > 100 | 6.69 | > 100 | 3.15 µM | 2.14 | 3.73 | 2.99 | 2.38 | 4.2
Cc1ccc(C(=O)Nc2ccc(CN3CCN(C)CC3)c(C(F)(F)F)c2)cc1C#Cc1cnc(N)cc1C#N | 1.08 | 1.08 | 0.479 | 6.12 | 9.61 | 0.762 | 0.137 µM | 0.233 | 0.108 | 0.005 | 0.46 | 0.13
COP(=O)(OC)C(NC(c1ccccc1)c1ccccc1)c1ccc2c(c1)OCO2 (stereo unspecified) | 29.4 | 56.5 | 50.2 | 65 | 29.7 | 95.1 | 7.85 µM | 22.8 | 23.8 | 20.7 | 2.26 | 30.1
CCCC1c2c(ccc3ccccc23)Oc2ccc3ccccc3c21 | > 100 | – | 54.3 | – | – | > 100 | – | – | – | – | – | –
O=C(O)c1ccc2c(c1)Cc1cc([N+](=O)[O-])ccc1-2 | > 100 | > 100 | > 100 | > 100 | > 100 | > 100 | – | – | – | – | – | –
CC[C@]1(O)CC2CN(CCc3c([nH]c4ccccc34)[C@@](C(=O)OC)(c3cc4c(cc3OC)N(C)[C@H]3[C@@](O)(C(=O)OC)[C@H](OC(C)=O)[C@]5(CC)C=CCN6CC[C@]43[C@@H]65)C2)C1 (stereo partly specified) | 0.721 | < 0.005 | 6.95 | 2.26 | 18.5 | > 21.3 | < 0.005 µM | < 0.005 | < 0.005 | < 0.005 | < 0.005 | 0.0588
COc1cc(Nc2nc3cc(N)cc(N)c3nc2-c2ccccc2)cc(OC)c1 | – | > 100 | 63.8 | > 100 | 0.167 | > 100 | – | 9.99 | 12 | 27.5 | – | 20
CCN(CC)c1ccc(/C=C\c2cc(C)c3cc(C)ccc3n2)cc1 | > 100 | 7.66 | 81 | – | – | > 100 | 6.12 µM | 3.23 | 7.24 | – | – | 2.32
OCCCCC#Cc1ccccc1C#Cc1ccccc1 | 63.8 | – | > 100 | > 100 | – | 24.2 | 17.8 µM | – | 40 | 22.1 | – | 11.7
C[C@]12CCC3[C@@H](C[C@@H]4SC(Nc5ccccc5)=N[C@@]45CC(=O)CC[C@]35C)[C@@H]1CCC2=O (stereo partly specified) | > 100 | – | 60.8 | > 100 | > 100 | 9.71 | 2.84 µM | – | 17.1 | 2.79 | 2.84 | 2.53
Cc1ccc2c(c1)nc(C(=O)c1ccco1)c(C(F)(F)F)[n+]2[O-] | > 100 | > 100 | > 100 | > 100 | > 100 | > 100 | > 100 µM | 51.4 | > 100 | 40.5 | > 100 | > 100
COCCn1cc(-c2csc(-c3c[nH]c4ccccc34)n2)c2cccnc21 | – | – | > 100 | > 100 | > 100 | > 100 | – | – | 7.38 | 2.8 | > 100 | 2.34
N#CC(=S)Nc1cccc(Cl)c1 | > 100 | 70.4 | > 100 | > 100 | > 100 | > 100 | – | – | – | – | – | –
C=C1C(=O)O[C@H]2[C@H]1CC/C(COC(=O)NCc1cc3ccccc3[nH]1)=C\CC[C@@]1(C)O[C@@H]21 | 7.64 | 3.16 | 7.25 | 9.18 | 3.36 | 3.32 | 2.43 µM | 0.865 | 2.46 | 1.63 | 0.443 | 1.54
Cc1ccc(C(CN(C)C)C(=O)c2ccccc2)cc1 (stereo unspecified) | 5.75 | 5.24 | 15.8 | 7.82 | 10.6 | 4.21 | 1.68 µM | 2.19 | 4.45 | 1.37 | 0.442 | 1.7
CC(=O)O[C@H]1C(=O)[C@@]2(C)C(C(OC(=O)c3ccccc3)[C@]3(O)CC(OC(=O)[C@H](OC(=O)CCC(=O)O)C(NC(=O)c4ccccc4)c4ccccc4)C(C)=C1C3(C)C)C1(OC(C)=O)COC1C[C@@H]2OC(=O)CCC(=O)O (stereo partly specified) | > 20.6 | 0.868 | – | – | – | > 100 | – | – | – | – | – | –
